In patent EP4778516A1, “CALCIFICATION ENHANCER FOR OSTEOBLAST MC3T3-E1 CELL” (Watanabe Oyster Laboratory Co., Ltd., priority 2023, dated 2025):

Tests used:
MC3T3-E1 cells [1] = experiment: Osteoblast differentiation assay and Alizarin Red S staining (calcification); type: cell-based, mouse
Description: MC3T3-E1 cells (10^5 cells/ml medium per well in a 12-well plate) were cultured for 3 days in a-MEM (1.0 ml per well) containing 10% FBS and 1% P/S. Thereafter, the medium was replaced, as previously described, with calcification-promoting medium, that is, a-MEM supplemented with 10% FBS, 1% P/S, L-ascorbic acid ([…]), and 4 mM b- glycerophosphoric acid. DHMBA was added at a concentration of 1 or 10 mM, and the cells were cultured for 18 days, with the medium replaced every 3 days with fresh medium. On day 18 of culture, the cells were rinsed with PBS and fixed by addition of ice-cold 75% ethanol at 4°C for 30 minutes. Then, calcium deposition was visualized by staining with Alizarin Red S (40 mM, pH 6.2). After incubation at room temperature for 30 minutes, the staining solution was removed by thorough washing with distilled water. Stained cells on the plates were photographed under a microscope (×40) (Olympus IX71, Olympus Corp., Tokyo, Japan) and imaged using ImageJ2 software. For quantification, the stained cells in each plate were solubilized by addition of 10% cetylpyridinium chloride solution, and absorbance was measured at 570 nm.

MC3T3-E1 cells [2] = experiment: Cell death assay (count of attached cells after 48 hours from subconfluence); type: cell-based, mouse
Description: To evaluate the effects of DHMBA on cell death of osteoblasts MC3T3-E1, the cells (1×10^5/ml medium per well in a 24-well plate) were cultured in a-MEM containing 10% FBS and 1% P/S. After culturing for 3 days until reaching subconfluence, either a reagent vehicle (1% ethanol as final concentration) or DHMBA (0.1, 1, 10, 100, or 1000 mM) was added, and the cells were further cultured for 48 hours. After culture, to count the number of cells attached to each well, a […] containing 0.05% trypsin and EDTA (0.1 ml per well) was added, and then the culture plates were incubated at 37°C for 2 minutes. Subsequently, a-MEM (0.9 ml) containing 10% FBS and 1% P/S was added, and the cells were detached and mixed by pipetting. The cell suspension (0.1 ml) was mixed with 0.1 ml of 0.5% trypan blue staining solution. By this staining, […]. Viable cells were counted under a microscope (Olympus MTV-3) using a hemocytometer (Sigma-Aldrich, St. Louis, MO) and a cell counter (H-102P, Line Seiki Co., Ltd., Tokyo, Japan), and the average of two counts was calculated. Cell numbers were expressed as the number per well.

NF-kB = NF-kB reporter assay (luciferase); type: cell-based, mouse; conditions: Fig. 8C
Description: An NF-kB-responsive luciferase reporter assay (pNF-kB-Luc, BD Biosciences) was performed according to the method previously described by the present inventors. MC3T3-E1 cells (2×10^4 cells per well in […] in a 96-well plate) were cultured for 24 hours in a-MEM containing 10% FBS and 1% P/S. After culture, the medium was removed, and the cells were washed twice with a-MEM without FBS or antibiotics. a-MEM ([…]) without FBS or antibiotics was then added to each well containing the cells. A reporter plasmid or an empty vector control (pGL3-Basic) was transfected into MC3T3-E1 cells using Lipofectamine 2000 Reagent (Invitrogen) in a-MEM without FBS or antibiotics. Five hours later, the medium was replaced with a-MEM containing 10% FBS and 1% P/S, and the cells were stimulated with TNF-a (1 or 10 ng/ml) for 24 hours. In parallel, the cells were cultured with either a reagent vehicle (1% ethanol as final concentration) or DHMBA (1 or 10 mM). After culture, the cells were extracted with Passive Lysis Buffer (Promega Corp., Madison, WI), and luciferase activity was measured using a Luciferase Assay System (Promega Corp.) with a microplate reader (Turner Designs, Inc., Sunnyvale, CA, USA). Equal transfection efficiency among all plasmids was validated by using the luciferase reporter plasmid pRL-SV40 (Promega Corp., Madison, WI).

[3] = system: bone-metastatic prostate cancer cells; conditions: earlier demonstration by the present inventors; cited from earlier work
NF-kB p65 = experiment: Western blotting of cell lysates; type: cell-based, mouse; conditions: 3 days
Description: MC3T3-E1 cells (1×10^6 cells in 10 ml medium in a 100-mm dish) were cultured for 3 days in a-MEM containing 10% FBS and 1% P/S in the presence of a reagent vehicle (1% ethanol as final concentration), DHMBA (10 mM), TNF-a (10 ng/ml medium), or DHMBA (10 mM) in combination with TNF-a (10 ng/ml). After culture, the dishes were washed three times with cold PBS (10 ml), and adherent cells were removed from the dishes by scraping in Cell Lysis Buffer (Cell Signaling Technology, Inc., Danvers, MA, USA). Protein samples obtained from the cell lysates were loaded ([…] per lane) and separated by SDS-polyacrylamide gel electrophoresis (12% SDS-PAGE), as previously described. After electrophoresis, the membranes were incubated overnight at 4°C with primary antibodies (each diluted 1:1,000) against target proteins NF-kB p65 (catalog no. 3034, rabbit) and b-actin (catalog no. 3700, mouse). […] Protein bands were then detected using a chemiluminescent substrate (catalog no. 34577, Thermo Fisher Scientific Inc., Rockford, IL, USA) on X-ray film. A total of four films obtained from four independent experiments using separate membranes were scanned using an Epson Perfection 1660 Photo scanner, and band intensities were quantified using ImageJ2 software (National Institutes of Health, Bethesda, MD, USA).

## COc1c(O)cc(CO)cc1O [DHMBA, 3,5-dihydroxy-4-methoxybenzyl alcohol]
MC3T3-E1 cells [1]; DHMBA 1 or 10 mM, 18 days in calcification-promoting medium, Alizarin Red, absorbance 570 nm, Figs. 2A and 2B
  calcification of MC3T3-E1 cells: enhanced
MC3T3-E1 cells [1]; TNF-a 1 ng/ml plus DHMBA 1 or 10 mM, 18 days, Fig. 4
  TNF-a-induced suppression of calcification of osteoblasts: suppressed
MC3T3-E1 cells [2]; DHMBA 0.1, 1, 10, or 100 mM, 48 hours after subconfluence, Fig. 1C
  number of cells attached to the dishes (cell death): not changed
MC3T3-E1 cells [2]; DHMBA 1000 mM, 48 hours after subconfluence, Fig. 1C
  number of cells (cell death): significantly decreased
MC3T3-E1 cells [2]; TNF-a 1 or 10 ng/ml plus DHMBA 1 or 10 mM, 48 hours, Fig. 3B
  TNF-a-enhanced death of MC3T3-E1 cells: suppressed
NF-kB; DHMBA in the absence of TNF-a
  NF-kB promoter activity in MC3T3-E1 cells: reduced
NF-kB; TNF-a 1 or 10 ng/ml plus, 24 hours
  TNF-a-induced increase of NF-kB promoter activity in MC3T3-E1 cells: suppressed
[3]
  metastatic activity of bone-metastatic prostate cancer cells: suppressive effects
  proliferation of bone-metastatic prostate cancer cells: suppressive effects
NF-kB p65; DHMBA 10 mM, without TNF-a, Figs. 8A and 8B
  expression level of NF-kB p65 in MC3T3-E1 cells: reduced
NF-kB p65; TNF-a 10 ng/ml plus DHMBA 10 mM, Fig. 8A and 8B
  TNF-a-induced increase of the level of NF-kB p65: suppressed
